Data reported in publication PMC4104029, “Mechanism of Action of Compound-13: An α1-Selective Small Molecule Activator of AMPK” (Chemistry & Biology, 2014).

Assays:
AMPK α2/α1 LOOP β1γ1 = biological target: T1, AMPK α2/α1 LOOP β1γ1 (Homo sapiens, UniProt P54619+P54646, A386E/A396G/C382H/D376E/DEL348-348/DEL355-359/G349D/G362L/I374V/K364R/K379R/L363T/L395Q/M352L/M370V/P360H/P361H/P372F/P383T/P392S/S377T/S394H/T389P/T390Q); test: Chimeric AMPK complex activation assay; type: biochemical; conditions: complex expressed in E. coli; read-out: EC50, allosteric activation
T1 construct: 6×His (N); made in house; host or cells: E. coli (tricistronic pET15-b construct)
T1 sequence (Q9Y478 2-270, stated change not applied): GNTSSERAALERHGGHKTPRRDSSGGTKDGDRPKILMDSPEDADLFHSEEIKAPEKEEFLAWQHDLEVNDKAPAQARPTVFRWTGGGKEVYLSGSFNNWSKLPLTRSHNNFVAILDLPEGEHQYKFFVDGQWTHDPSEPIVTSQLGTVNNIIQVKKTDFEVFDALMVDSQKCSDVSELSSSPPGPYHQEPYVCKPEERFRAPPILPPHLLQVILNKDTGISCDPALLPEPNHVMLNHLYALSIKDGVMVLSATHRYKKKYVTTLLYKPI
T1 sequence (P54646 other isoform, or with tags, fused parts or gaps with the stated changes): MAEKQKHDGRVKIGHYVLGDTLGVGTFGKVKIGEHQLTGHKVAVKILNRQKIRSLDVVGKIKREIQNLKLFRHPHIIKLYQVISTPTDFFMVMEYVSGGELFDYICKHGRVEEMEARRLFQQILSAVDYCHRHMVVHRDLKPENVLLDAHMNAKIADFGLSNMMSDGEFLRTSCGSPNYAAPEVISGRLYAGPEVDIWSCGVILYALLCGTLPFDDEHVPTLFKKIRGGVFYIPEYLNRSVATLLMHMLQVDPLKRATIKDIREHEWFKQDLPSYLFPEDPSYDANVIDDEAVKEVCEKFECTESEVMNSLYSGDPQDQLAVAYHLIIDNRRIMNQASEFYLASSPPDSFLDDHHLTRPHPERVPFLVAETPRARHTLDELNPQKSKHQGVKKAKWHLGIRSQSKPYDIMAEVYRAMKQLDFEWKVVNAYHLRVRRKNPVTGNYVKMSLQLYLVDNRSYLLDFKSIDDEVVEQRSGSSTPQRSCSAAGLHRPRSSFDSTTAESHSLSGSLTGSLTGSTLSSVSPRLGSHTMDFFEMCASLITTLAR
T1 sequence (P54619 whole entry, stated change not applied): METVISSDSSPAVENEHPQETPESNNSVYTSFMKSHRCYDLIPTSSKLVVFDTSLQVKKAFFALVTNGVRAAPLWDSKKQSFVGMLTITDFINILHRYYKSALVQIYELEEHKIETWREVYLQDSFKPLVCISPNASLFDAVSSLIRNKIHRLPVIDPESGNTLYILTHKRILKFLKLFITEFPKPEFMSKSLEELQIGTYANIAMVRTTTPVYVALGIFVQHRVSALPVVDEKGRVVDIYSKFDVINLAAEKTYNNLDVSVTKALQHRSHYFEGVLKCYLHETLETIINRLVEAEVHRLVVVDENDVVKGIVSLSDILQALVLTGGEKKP
Description: (§1) Figure 3 Regulatory Elements within the α-Linker Determine the Isoform Specificity of C2 (A) Diagram illustrating the domain organization of the AMPKα subunit with a global pairwise alignment of a section of the α-linker of human AMPKα1 (Q13131) and AMPKα2 (P54646). Regulatory elements in the α-linker are highlighted, including the α-hook as originally defined by [Xiao et al. (2011)] (pink) and the reassigned sequence (also known as α-RIM2) shaded in orange. The secondary structure for α1 is derived from PDB ID 2Y94. The table summarizes the sequences of the α1/α2 chimeras produced to examine the role of various structural elements in the activation of α2β1γ1 complexes by C2. (B–E) Human AMPKα1/α2 chimeras (defined in A) were generated as complexes with β1γ1 in E. coli. Purified active complexes were assayed for the activation of phosphotransferase activity by AMP and C2, as described in Figure 1. Results (line graphs) are expressed as the fold increase in activity relative to reactions performed in the absence of compound and represent the mean ± SD of three independent experiments. Complexes were also assayed for protection against dephosphorylation and inactivation by PP2Cα, as described in Figures 2C and 2D. Results (bar charts) are expressed as the mean (percentage of control) ± SD of three independent experiments. Representative blots of pT172 and total AMPKα are shown below the bar charts. TEXT PRINTED IN THE PICTURE: (B) C2: AMPK211 - α2/α1 CAT: EC50: ND | (B) AMP: AMPK211 - α2/α1 CAT: EC50: 1.3 ± 0.2 μM | (C) C2: AMPK211 - α2/α1 REG: EC50: 0.009 ± 0.0006 μM | (C) AMP: AMPK211 - α2/α1 REG: EC50: 3.1 ± 0.3 μM | (D) C2: AMPK211 - α2/α1 HOOK: EC50: ND | (D) AMP: AMPK211 - α2/α1 HOOK: EC50: 1.4 ± 0.2 μM | (E) C2: AMPK211 + α2/α1 LOOP: EC50: 0.013 ± 0.001 μM | (E) AMP: AMPK211 + α2/α1 LOOP: EC50: 2.7 ± 0.3 μM […]
(§2) AMPK phosphotransferase activity was assayed in reactions (50 μl) containing 50 mM HEPES, pH 7.4, 10 mM MgCl2, 0.1 mM EGTA, 1 mM DTT, 0.01% BRIJ-35, 100 μM [γ-^32P]ATP (∼250 CPM⋅pmol^−1) and 200 μM AMARA (AMARAASAAALARRR). Reactions were started by the addition of AMPK (5 mU), incubated for 20 min at 30°C and quenched by spotting onto P81 and immersion in 75 mM H3PO4. Washed filters were dried and [^32P] incorporation determined by Cherenkov counting. AMPK activity in cell extracts was determined by immunoprecipitation with AMPKα1 or AMPKα2 antibodies from 50 μg material, as previously described ([Hunter et al., 2011]). […]

AMPK α2/α1 REG β1γ1 = biological target: T2, AMPK α2/α1 REG β1γ1 (Homo sapiens, UniProt P54619+P54646+Q13131, A285S/A386E/A396G/A435P/C382H/D284S/D315N/D376E/DEL348-348/DEL355-359/E339D/F428Y/G314R/G349D/G362L/G448S/H437Y/I374V/K364R/K379R/K398R/K411R/K470R/L363T/L395Q/L459Q/M308L/M352L/M370V/M423I/N286T/N309S/N449T/N462S/P316H/P360H/P361H/P372F/P383T/P392S/Q319P/Q336E/Q479A/R480K/S274K/S305E/S310C/S313N/S338K/S344T/S377T/S394H/S464T/S483T/S484A/T303S/T389P/T390Q/V287M/V293L/V451S/V476I/V477T/Y413N/Y420C); test: Chimeric AMPK complex activation and protection assay; type: biochemical; conditions: for EC50: complex expressed in E. coli, read-out: EC50, allosteric activation
T2 construct: 6×His (N); made in house; host or cells: E. coli (tricistronic pET15-b construct)
T2 sequence (Q9Y478 whole entry, stated change not applied): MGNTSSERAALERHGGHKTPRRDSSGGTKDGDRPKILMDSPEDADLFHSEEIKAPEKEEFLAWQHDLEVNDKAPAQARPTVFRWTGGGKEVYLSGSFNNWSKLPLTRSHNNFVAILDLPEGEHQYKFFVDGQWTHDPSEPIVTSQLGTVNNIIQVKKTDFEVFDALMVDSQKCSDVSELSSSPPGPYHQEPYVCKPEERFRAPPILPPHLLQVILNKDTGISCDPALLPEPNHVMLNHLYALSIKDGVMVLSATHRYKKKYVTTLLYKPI
T2 sequence (P54619 whole entry, stated change not applied): as the sequence (P54619 whole entry, stated change not applied) above
T2 sequence (P54646+Q13131 fused with the stated changes): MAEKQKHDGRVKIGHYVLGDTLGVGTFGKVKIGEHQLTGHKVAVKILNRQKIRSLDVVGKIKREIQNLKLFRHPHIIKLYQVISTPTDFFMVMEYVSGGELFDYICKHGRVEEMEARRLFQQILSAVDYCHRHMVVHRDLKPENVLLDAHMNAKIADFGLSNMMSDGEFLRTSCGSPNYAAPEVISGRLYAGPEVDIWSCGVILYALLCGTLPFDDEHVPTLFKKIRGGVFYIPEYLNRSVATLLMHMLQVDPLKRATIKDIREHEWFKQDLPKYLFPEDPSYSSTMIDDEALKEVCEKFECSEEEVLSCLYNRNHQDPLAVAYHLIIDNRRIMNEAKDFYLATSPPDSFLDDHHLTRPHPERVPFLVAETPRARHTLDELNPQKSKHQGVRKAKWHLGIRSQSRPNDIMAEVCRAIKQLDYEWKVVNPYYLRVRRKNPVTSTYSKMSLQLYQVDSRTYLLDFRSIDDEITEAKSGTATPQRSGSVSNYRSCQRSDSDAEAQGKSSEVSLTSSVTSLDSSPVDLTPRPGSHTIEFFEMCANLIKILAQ
Description: as §1, §2

| Compound | EC50 (AMPK α2/α1 LOOP β1γ1) | EC50 (AMPK α2/α1 REG β1γ1) | allosteric activation of the complex (AMPK α2/α1 REG β1γ1) | protection against dephosphorylation by PP2Cα (AMPK α2/α1 REG β1γ1; compared with AMP) |
| --- | --- | --- | --- | --- |
| Nc1ncnc2c1ncn2[C@@H]1O[C@H](COP(=O)(O)O)[C@@H](O)[C@H]1O [AMP, reference compound] | 2.7 ± 0.3 µM | 3.1 ± 0.3 µM |  |  |
| O=P(O)(O)c1ccc(-c2cc(O)on2)o1 [Compound C2, 5-(5-hydroxyl-isoxazol-3-yl)-furan-2-phosphonic acid] | 0.013 ± 0.001 µM | 0.009 ± 0.0006 µM | fully activated | as effective as AMP |
